Test results reported in patent US8124629B2, “Naphthylacetic acids” (Hoffmann-La Roche Inc., priority 2008, dated 2012).

biological target: T1, human CRTH2 (Homo sapiens, UniProt Q9Y5Y4); assay: Human CRTH2 Receptor Binding Assay (whole cell, [3H]ramatroban); set-up: expressed in transfected cells; host or cells: CHO-K1; settings: CHO-K1 cells expressing human CRTH2 and G-alpha16; 20 nM [3H]ramatroban; 1 hour, room temperature
T1 sequence (Q9Y5Y4 1-395): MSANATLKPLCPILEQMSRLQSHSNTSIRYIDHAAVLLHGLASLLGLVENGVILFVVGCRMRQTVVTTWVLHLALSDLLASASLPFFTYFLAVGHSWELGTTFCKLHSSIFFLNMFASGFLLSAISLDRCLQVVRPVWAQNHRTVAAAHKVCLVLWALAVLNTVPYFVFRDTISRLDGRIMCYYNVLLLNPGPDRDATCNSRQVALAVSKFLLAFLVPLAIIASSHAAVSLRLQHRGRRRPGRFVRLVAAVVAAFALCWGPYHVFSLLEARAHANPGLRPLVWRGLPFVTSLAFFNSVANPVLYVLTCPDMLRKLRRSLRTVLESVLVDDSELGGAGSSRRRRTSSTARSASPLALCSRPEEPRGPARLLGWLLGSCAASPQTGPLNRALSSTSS
Description: A whole cell receptor binding assay using [^3H]ramatroban as the competing radioactive ligand was employed to evaluate the compound binding activity to human CRTH2. The radioactive ligand [^3H]ramatroban was synthesized according to Sugimoto et. al. (Eur. J. Pharmacol. 524, 30-37, 2005) to a specific activity of 42 Ci/mmol.
A cell line stably expressing human CRTH2 was established by transfecting CHO-K1 cells with two mammalian expression vectors that harbored human CRTH2 and G-alpha16 cDNAs, respectively, using FuGene® 6 transfection reagent (from Roche). Stable clones expressing CRTH2 were selected by staining each clone with BM16 (BD Pharmingen™ from BD Biosciences, a division of Becton, Dickinson and Company), which is a rat monoclonal antibody to human CRTH2. The cells were maintained as monolayer cultures in Ham's F-12 medium containing 10% fetal bovine serum, 100 units/mL penicillin, 100 μg/mL streptomycin, 2 mM glutamine, 0.5 mg/mL G418 (geneticin) for CRTH2, and 0.2 mg/mL hygromycin-B (for G-alpha 16). For whole cell receptor binding assay, the monolayer cells were rinsed once with PBS (phosphate buffered saline), dissociated using ethylenediaminetetraacetate (Versene™ EDTA from Lonza Inc.), and suspended in PBS containing 10 mM MgCl2 and 0.06% BSA (bovine serum albumin) at 1.5×10^6 cells/mL.
The binding reactions (0.2 mL) were performed in 96-well plates at room temperature in PBS containing 1.5×10^5 cells, 10 mM MgCl2, 0.06% BSA, 20 nM [^3H]ramatroban, and test compound at various concentrations. After 1 hour of binding reactions, the cells were harvested on GF™/B filter microplates (microtiter plates with embedded glass fiber from Perkin Elmer, Inc.) and washed 5 times with PBS using a Filtermate™ Harvester (a cell harvester that harvests and washes cells from microplates from PerkinElmer, Inc.). The radioactivities bound to the cells were determined using a microplate scintillation counter (TopCount® NXT, from PerkinElmer, Inc.) after adding 50 μL of Microscint™ 20 scintillation fluid (from PerkinElmer, Inc.) to each well of the filter plates. The radioactivity from non-specific binding was determined by replacing compound with 10 μM of 15(R)-15-methyl PGD2 (from Cayman Chemical Company) in the reaction mixtures. The radioactivity bound to the cells in the absence of compound (total binding) was determined by replacing compound with 0.25% of DMSO (dimethyl sulfoxide) in the reaction mixture. Specific binding data were obtained by subtracting the radioactivity of non-specific binding from each binding data.
The IC50 value is defined as the concentration of the tested compound that is required for 50% inhibition of total specific binding. In order to calculate the IC50 value, the percent inhibition data were determined for 7 concentrations for each compound. The percent inhibition for a compound at each concentration was calculated according to the following formula, [1-(specific binding in the presence of compound)/(total specific binding)]×100. The IC50 value was then obtained by fitting the percent inhibition data to a sigmoidal dose-response (4 parameter logistic) model in the XLfit® software Excel add-in program [from ID Business Solutions Ltd., model 205, where F(x)=(A+(B−A)/(1+((C/×)^D)))].

In order of falling IC50:
1. CS(=O)(=O)c1cccc(C(=O)c2cc(CC(=O)O)cc3ccc(F)cc23)c1 [Example 2-10, [6-Fluoro-4-(3-methanesulfonyl-benzoyl)-naphthalen-2-yl]-acetic acid]  0.0448 µM
2. CS(=O)(=O)c1ccc(C(=O)c2cc(CC(=O)O)cc3cc(F)ccc23)cc1 [Example 2-4, [7-Fluoro-4-(4-methanesulfonyl-benzoyl)-naphthalen-2-yl]-acetic acid]  0.0406 µM
3. COc1ccc2cc(CC(=O)O)cc(C(=O)c3ccc(S(C)(=O)=O)cc3)c2c1 [Example 2-2, [4-(4-Methanesulfonyl-benzoyl)-6-methoxy-naphthalen-2-yl]-acetic acid]  0.0264 µM
4. CN(C)S(=O)(=O)c1ccc(C(=O)c2cc(CC(=O)O)cc3ccccc23)cc1 [Example 1-1, [4-(4-Dimethylsulfamoyl-benzoyl)-naphthalen-2-yl]-acetic acid]  0.0178 µM
5. CS(=O)(=O)c1ccc(C(=O)c2cc(CC(=O)O)cc3ccccc23)cc1 [Example 2-3, [4-(4-Methanesulfonyl-benzoyl)-naphthalen-2-yl]-acetic acid]  0.017 µM
6. CS(=O)(=O)c1ccc(C(=O)c2cc(CC(=O)O)cc3cc(F)c(F)cc23)cc1 [Example 2-6, [6,7-Difluoro-4-(4-methanesulfonyl-benzoyl)-naphthalen-2-yl]-acetic acid]  0.0155 µM
7. Cc1cc(S(C)(=O)=O)ccc1C(=O)c1cc(CC(=O)O)cc2ccc(F)cc12 [Example 2-5, [6-Fluoro-4-(4-methanesulfonyl-2-methyl-benzoyl)-naphthalen-2-yl]-acetic acid]  0.0151 µM
8. CS(=O)(=O)c1ccc(C(=O)c2cc(CC(=O)O)cc3ccc(F)cc23)c(F)c1 [Example 2-17, [6-Fluoro-4-(2-fluoro-4-methanesulfonyl-benzoyl)-naphthalen-2-yl]-acetic acid]  0.0145 µM
9. CCS(=O)(=O)c1ccc(C(=O)c2cc(CC(=O)O)cc3ccc(F)cc23)c(Cl)c1 [Example 1-4, [4-(2-Chloro-4-ethanesulfonyl-benzoyl)-6-fluoro-naphthalen-2-yl]-acetic acid]  0.0112 µM
10. CS(=O)(=O)c1ccc(C(=O)c2cc(CC(=O)O)cc3ccc(F)cc23)c(Cl)c1 [Example 2-8, [4-(2-chloro-4-methanesulfonyl-benzoyl)-6-fluoro-naphthalen-2-yl]-acetic acid]  0.0085 µM
11. O=C(O)Cc1cc(C(=O)c2ccc(S(=O)(=O)c3cccc(Cl)c3)cc2)c2cc(F)ccc2c1 [Example 1-5, {4-[4-(3-Chloro-benzenesulfonyl)-benzoyl]-6-fluoro-naphthalen-2-yl}-acetic acid]  0.0062 µM
12. CS(=O)(=O)c1ccc(C(=O)c2cc(CC(=O)O)cc3ccc(F)cc23)cc1 [Example 2-1, [6-Fluoro-4-(4-methanesulfonyl-benzoyl)-naphthalen-2-yl]-acetic acid]  0.0043 µM
13. CS(=O)(=O)c1ccc(C(=O)c2cc(CC(=O)O)cc3ccc(F)cc23)cc1C(F)(F)F [Example 2-18, [6-Fluoro-4-(4-methanesulfonyl-3-trifluoromethyl-benzoyl)-naphthalen-2-yl]-acetic acid]  0.0042 µM
14. CNS(=O)(=O)c1ccc(C(=O)c2cc(CC(=O)O)cc3ccc(F)cc23)cc1 [Example 2-15, [6-Fluoro-4-(4-methylsulfamoyl-benzoyl)-naphthalen-2-yl]-acetic acid]  0.0033 µM
15. O=C(O)Cc1cc(C(=O)c2ccc(S(=O)(=O)N3CCOCC3)cc2)c2cc(F)ccc2c1 [Example 2-16, {6-Fluoro-4-[4-(morpholine-4-sulfonyl)-benzoyl]-naphthalen-2-yl}-acetic acid]  0.0033 µM
16. CCS(=O)(=O)c1ccc(C(=O)c2cc(CC(=O)O)cc3ccc(F)cc23)cc1 [Example 2-13, [4-(4-Ethanesulfonyl-benzoyl)-6-fluoro-naphthalen-2-yl]-acetic acid]  0.003 µM
17. CN(C)S(=O)(=O)c1ccc(C(=O)c2cc(CC(=O)O)cc3ccc(F)cc23)cc1 [Example 2-14, [4-(4-Dimethylsulfamoyl-benzoyl)-6-fluoro-naphthalen-2-yl]-acetic acid]  0.0027 µM
